Biological target: T1, hEag1 channels (Homo sapiens, UniProt O95259)
T1 sequence (O95259 1-989): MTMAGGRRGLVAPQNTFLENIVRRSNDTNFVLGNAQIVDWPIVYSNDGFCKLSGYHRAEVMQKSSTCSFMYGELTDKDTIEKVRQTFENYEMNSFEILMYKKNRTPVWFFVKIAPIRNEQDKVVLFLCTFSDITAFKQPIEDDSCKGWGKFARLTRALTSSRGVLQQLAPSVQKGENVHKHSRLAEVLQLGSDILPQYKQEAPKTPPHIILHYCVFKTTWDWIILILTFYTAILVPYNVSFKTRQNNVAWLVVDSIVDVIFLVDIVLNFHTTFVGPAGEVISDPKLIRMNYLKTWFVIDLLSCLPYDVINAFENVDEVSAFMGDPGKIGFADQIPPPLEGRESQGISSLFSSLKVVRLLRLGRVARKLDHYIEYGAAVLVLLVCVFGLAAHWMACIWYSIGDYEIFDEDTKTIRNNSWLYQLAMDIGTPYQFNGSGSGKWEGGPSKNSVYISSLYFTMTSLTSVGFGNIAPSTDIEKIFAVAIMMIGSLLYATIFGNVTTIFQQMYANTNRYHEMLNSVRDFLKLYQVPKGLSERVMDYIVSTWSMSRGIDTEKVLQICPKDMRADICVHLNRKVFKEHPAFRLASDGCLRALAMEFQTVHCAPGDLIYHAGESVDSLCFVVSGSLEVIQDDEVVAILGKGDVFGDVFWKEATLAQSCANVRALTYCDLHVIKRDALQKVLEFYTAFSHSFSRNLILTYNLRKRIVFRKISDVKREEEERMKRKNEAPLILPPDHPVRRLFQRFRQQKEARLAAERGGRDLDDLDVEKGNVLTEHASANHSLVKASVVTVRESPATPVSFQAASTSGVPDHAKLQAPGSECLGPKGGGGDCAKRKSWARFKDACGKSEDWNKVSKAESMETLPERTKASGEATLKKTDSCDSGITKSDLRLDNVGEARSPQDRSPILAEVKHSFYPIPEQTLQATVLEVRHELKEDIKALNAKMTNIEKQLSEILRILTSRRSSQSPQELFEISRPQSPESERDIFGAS
Experiment: Whole-cell patch-clamp of hEag1 currents in stably transfected HEK-293 cells
Type: cell-based

[1] = 10 μM imipramine or 1 μM astemizole
[2] = 200 μM internal TEA, 80 mV, 10 μM imipramine or 1 μM astemizole
[3] = control, 80 mV, 10 μM imipramine or 1 μM astemizole
[4] = nonsaturating concentrations, 80 mV

For `COc1ccc(CCN2CCC(Nc3nc4ccccc4n3Cc3ccc(F)cc3)CC2)cc1` [astemizole], the Kd was 109 nM, the “voltage dependence of block” value was “insensitive to membrane potential” and the current blocked (100 nM astemizole in the presence of 5 μM imipramine, 60 mV) was 38 ± 5%. The current blocked (100 nM astemizole, control external solution, 60 mV) was 66 ± 3%, the “k of exponential fit to τclose(V) (tail current deactivation)” value [1] was −0.025 and the “τ(0) of exponential fit to τclose(V) (tail current deactivation)” value [1] was 10.75 ms. For the same compound, the “τ∞ of exponential fit to τclose(V) (tail current deactivation)” value [1] was 0.75 ms, the “effect on whole-cell current when added to the intracellular solution” value (25 μM in intracellular pH 6.4 solution (unpublished data)) was “substantial block” and the “reduction of potency in the presence of internal TEA” value (200 μM internal TEA) was ~50%. The current blocked [2] was 42 ± 12%, the τblock [2] was 1084 ± 158 ms and the “effect of external TEA on the block” value (7 mM external TEA) was “did not affect”. It also gave an IC50 (IC50(V), voltage-independent line through IC50 data, test potentials 20–120 mV) of 120 nM, an IC50 (IC50, whole-cell, pHext//pHint 6.4//7.35) of 419 ± 68 nM and an IC50 (IC50, whole-cell, pHext//pHint 7.4//6.4) of 54 ± 12 nM. The IC50 (IC50, whole-cell, pHext//pHint 7.4//8.4) was 556 ± 69 nM, the IC50 (IC50, whole-cell, pHext//pHint 8.4//7.35) was 37 ± 7 nM and the current blocked [3] was 87 ± 3%. For the same compound, the τblock [3] was 317 ± 73 ms, the “slope of logIC50 versus difference between pHext and pHint” value (linear fit) was −0.53 and the “slope of linear fit of τblock^−1 versus concentration” value [4] was 4 s^−1μM^−1. The “y intercept of linear fit of τblock^−1 versus concentration” value [4] was 0.4 µM, the “time constant of block washout” value (pHext 7.4, pHint 6.4) was 235 s and the “time course of block onset” value (pHext 7.4, pHint 6.4, 250 nM astemizole) was 60 s. The “time constant of block washout” value (pHext 7.4, pHint 8.4) was 25 s, the “time course of block onset” value (pHext 7.4, pHint 8.4, 5 μM astemizole) was 20 s and the “Hill coefficient of dose–response plot” value (whole-cell, 80 mV) was 1.32. For the same compound, the “Hill coefficient of fit to τblock versus concentration” value (whole-cell, 80 mV) was 1.32, the “time constant of current decay (τblock) at the IC50 concentration” value (whole-cell, 80 mV) was ~500 ms and the “τblock, maximum of Hill fit” value (whole-cell, 80 mV) was 1.33 s. For the same compound, the “τblock, minimum of Hill fit” value (whole-cell, 80 mV) was 0.024 s.
